# Source: ChEMBL document CHEMBL1150507, “New hydroxy-amido-anthraquinones as potential antineoplastic drugs” (1992)
# Assays:
# HeLa = assay: Compound was tested for tumor cell growth inhibition against HeLa cell line; type: functional; conditions: Homo sapiens, read-out: ID50 (the source's name)
# HL-60 = assay: Compound was tested for tumor cell growth inhibition against HL 60 cell line; type: functional; conditions: Homo sapiens, read-out: ID50 (the source's name)
SMILES,IC50 (HeLa),IC50 (HL-60)
CCN(CC)CC(=O)Nc1ccc(NC(=O)CN(CC)CC)c2c1C(=O)c1c(O)ccc(O)c1C2=O,> 38000 nM,4900 nM
O=C1c2c(O)ccc(O)c2C(=O)c2c(NCCNCCO)ccc(NCCNCCO)c21 [MITOXANTRONE],2770 nM,90 nM

# The remaining lines, values ahead:
IC50 (HeLa),IC50 (HL-60),SMILES
8050 nM,110 nM,CCN(CC)CCC(=O)Nc1ccc(O)c2c1C(=O)c1c(O)ccc(O)c1C2=O
3140 nM,100 nM,CCN(CC)CCC(=O)Nc1ccc(NC(=O)CCN(CC)CC)c2c1C(=O)c1c(O)ccc(O)c1C2=O
26100 nM,1640 nM,CCN(CC)CC(=O)Nc1ccc(O)c2c1C(=O)c1c(O)ccc(O)c1C2=O
